Values belong to the molecule of their own block, whether it stands above or below them.
Assays:
[1] = Stability to transchelation (cysteine / histidine challenge); format: physicochemical; settings: 99mTc-labeled HPLC purified product
Description: The stability of the complex to transchelation was investigated by incubating two separate samples of 4b with 1000 fold excess of cysteine and histidine in PBS buffer heated to 37° C.

[2] = Biodistribution / blood clearance of 99mTc complex; format: in vivo
From the text: We have also explored extensively the use as ligands for metal tricarbonyls, e.g., Re and Tc tricarbonyls, of protected and unprotected versions of [ε-{N,N-di(pyridyl-2-methyl)}α-(fmoc)lysine] (Fmoc-DpK). The choice of the tridentate DpK for the exploration of a single amino acid chelate was based on the excellent RCP and RCY, and the potential to prepare radiopharmaceutical kits. The pyridine-2-methylamine was easily derivatized into the amino acid.
This approach enables the creation of libraries containing the {M(CO)3}^1+ core. We have begun to define the biological fate of the ^99mTc-bis(heteroaryl) complexes, allowing us to compare a series of future tridentate analogs. The dipyridine labeling proceeded in high yield and was stable to excess histidine and cysteine challenges for more than 18 hours. […] Activity decreased in all tissues as a function of time, except in the GI tract, which increased with time.

[3] = molecular target: T1, formyl peptide receptor (Homo sapiens, UniProt P21462); test: Affinity for the formyl peptide receptor by flow cytometry; format: binding; settings: fluorescein labeled fNLFNTK as the reference ligand
T1 sequence (P21462 1-350): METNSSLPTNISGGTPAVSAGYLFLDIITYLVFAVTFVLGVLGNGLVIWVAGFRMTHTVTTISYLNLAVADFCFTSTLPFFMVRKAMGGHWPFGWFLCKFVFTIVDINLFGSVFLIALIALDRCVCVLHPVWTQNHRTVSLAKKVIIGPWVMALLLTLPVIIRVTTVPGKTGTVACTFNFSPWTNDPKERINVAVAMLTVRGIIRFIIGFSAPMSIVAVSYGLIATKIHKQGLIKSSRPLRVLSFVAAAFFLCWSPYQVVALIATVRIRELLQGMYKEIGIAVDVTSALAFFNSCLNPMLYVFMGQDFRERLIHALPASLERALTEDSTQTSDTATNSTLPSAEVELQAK
Description: The affinity of 5 and 6 for the formyl peptide receptor was determined by flow cytometry using fluorescein labeled fNLFNTK as the reference ligand.

degradation in challenge experiments ([1]; 10 mM Cysteine or Histidine in PBS pH 7.2 at 37° C. for 20 hrs): no degradation
Molecule: O=C1c2ccccc2C(=O)N1CCCCN(Cc1ccccn1)Cc1ccccn1 [[{N,N-di(pyridyl-2-methyl)}N-butyl-phthlalimide]]

degradation in challenge experiments ([1]; 100 mM Cysteine or Histidine in PBS pH 7.2 at 37° C. for 18 hrs): no degradation
Molecule: O=C(NC(CCCCN(Cc1ccccn1)Cc1ccccn1)C(=O)O)OCC1c2ccccc2-c2ccccc21 (stereo not drawn) [Fmoc-DpK, [ε-{N,N-di(pyridyl-2-methyl)}α-(fmoc)lysine]]

Molecule: [^99mTc(CO)3(DpK)]
blood clearance % ID/g ([2]; 5 minutes): 0.6 % ID/g
blood clearance % ID/g ([2]; 30 minutes): 0.07 % ID/g

Kd [3]: 27 ± 13 nM
Molecule: fMLF[(SAACQ-Re(CO)3)^+]G [Compound 6]

Reference: patent US20090148382A1, “Technetium- and rhenium-bis(heteroaryl) complexes, and methods of use thereof” (Molecular Insight Pharmaceuticals, Inc., priority 2004, published 2009)
